{"source": "patent US11241483B2", "about": "“Methods of treating mild brain injury” (The Regents of the University of California, priority 2014, dated 2022)", "key": {"[1]": {"system": "oxidative burst in inflammatory cells (reactive oxygen species)", "assay": "Oxidative burst (ROS, DHR 123 flow cytometry) in leukocytes isolated from brain tissue after mild brain injury (controlled cortical impact)", "format": "in vivo, C57/B6 mice", "method": "FIG. 1 depicts principle of assaying oxidative burst within inflammatory cells. Dihydrorhodamine 123 (DHR 123) diffuses across the cell membrane. When it encounters reactive oxygen species (ROS), DHR 123 is oxidized and fluoresces green. The fluorescence is then measured and presented as arbitrary fluorescence unit (AFU), wherein higher intensity means greater oxidative burst and, therefore greater concentration of amount of ROS (See Chen, et al., Measurement of oxidative burst in neutrophils,” Methods Mol Biol., 844: 115-124 (2012); which is incorporated herein by reference in its entirety).\nGhrelin administration reduces oxidative burst in inflammatory cells following mBI. Since no well-accepted animal model exists for concussions, a very small cerebral lesion that closely mimics mBI is used as a model of mBI. […] Anesthesia is assessed by paw pinch reflex. […]\nAnimals are separated into three treatment groups: 1) Sham, 2) mBI, and 3) mBI plus ghrelin. […] The fluorescence is then measured and presented as arbitrary fluorescence unit (AFU), wherein higher intensity means greater oxidative burst and, therefore greater concentration or amount of ROS. […] Oxidative burst, which is a marker for ROS, can be measured by flow cytometry (e.g., FL1 channel with 488-nm laser)."}, "[2]": {"system": "blood brain barrier (BBB) vascular permeability; Aquaporin 4 (AQP-4)", "assay": "Ghrelin treatment of TBI animals (background statement): BBB vascular permeability and Aquaporin 4 expression", "format": "in vivo", "conditions": "following TBI"}}, "note": "“Also recorded” adds a separate entry of the source. Ends that are not written are not given here.", "data": [{"substance": "Gly-Ser-Ser-Phe-Leu-Ser-Pro-Glu-His-Gln-Arg-Val-Gln-Gln-Arg-Lys-Glu-Ser-Lys-Lys-Pro-Pro-Ala-Lys-Leu-Gln-Pro-Arg (SEQ ID NO. 1) (GSSFLSPEHQRVQQRKESKKPPAKLQPR; not fully specified (residues 2, 3); printed as Gly-Ser-Ser-Phe-Leu-Ser-Pro-Glu-His-Gln-Arg-Val-Gln-Gln-Arg-Lys-Glu-Ser-Lys-Lys-Pro-Pro-Ala-Lys-Leu-Gln-Pro-Arg; also: octanoyl on Ser2 and/or Ser3 stated only as an option; listed as Homo sapiens) [ghrelin, 28-amino acid peptide, neuroendocrine hormone, endogenous ligand for growth hormone secretagogue receptor; obtainable from Phoenix Pharmaceuticals]", "values": [{"measurement": "Oxidative burst of ipsilateral whole brain following mild BI (mean fluorescence intensity)", "setting": "[1]; mild BI+ghrelin (2 doses), subcutaneous 10 μg following mBI and 10 μg 1 hour after, vs 7963 AFU±2900 mild BI and 4624 AFU±1858 sham, n=5, p=0.048", "value": 3257, "unit": "AFU"}, {"measurement": "Oxidative burst in inflammatory cells following mBI (FIG. 2, peak shift)", "setting": "[1]; subcutaneous ghrelin vs untreated mBI, n=3 animals in each group", "value": "reduced the oxidative burst; also recorded: lower oxidative burst"}, {"measurement": "Post-TBI up-regulation of Aquaporin 4 (AQP-4)", "setting": "[2]", "value": "prevents post-TBI up-regulation of Aquaporin 4"}]}]}
